Source: US20030129629A1, “Methods and compositions for the identification, assessment, prevention, and therapy of human cancers” (Millennium Pharmaceuticals, Inc., priority 2000, published 2003)

Test system: 60 cancer cell lines (NCI 60 cancer cell line series)
Assay: NCI-DTP in vitro cancer screen, sulforhodamine B (SRB) growth inhibition, 48 hour exposure
Format: cell-based, human
Method: Cancer Cell Line Preparation. Sixty cancer cell lines were obtained from the National Cancer Institute Developmental Therapeutics Program (NCI-DTP). Procedures for growing cells and testing compounds have been described previously (Scudiero et al., Cancer Res. 1988, 48:4827-4833; Stinson et al., Anticancer Res.; Myers et al., Electrophoresis 1997, 18:647-653). Cells are plated on day 0 at a density individualized for each cell line so that they will generally be sub-confluent at the end of the assay period. On day 1, a compound is added in the format for a duplicate-well, 5-dose, ten-fold interval dose response study.
No-drug, no-cell and no-growth controls are included. On day 3 the cells are processed for staining with sulforhodamine B (SRB), which reflects the amount of cell mass present at the end of a 48 hour exposure to the test agent. From dose response curves based on the SRB data, various parameters can be determined. […] More precisely, the quantity used in the calculation to be described is the potency measure −log{GI50}.
Activity database (A). […] This subset of compounds was selected from the larger 23,000 compound database available from the DTP. The compounds were selected on the basis of their known mechanism of action and chemical structure. The average potency −log{GI50} was extracted from the comma-delimited text files available through the Web at http://www.nci.nih.gov/intra/lmp/jnwbio.html. Subsequently, these −log{GI50} values were inspected manually and classified as indicating either Low, Medium or High sensitivity to each compound.

Compound: O=C1c2c(O)ccc(O)c2C(=O)c2c(NCCNCCO)ccc(NCCNCCO)c21 [Mitoxantrone]
- classification of cell line as Low(1), Medium(2), High(3) sensitivity to compound (Breast BT-549 CL5013): 2
- classification of cell line as Low(1), Medium(2), High(3) sensitivity to compound (Breast HS-578T CL5006): 2
- classification of cell line as Low(1), Medium(2), High(3) sensitivity to compound (Breast MCF7(I) CL5001): 3
- classification of cell line as Low(1), Medium(2), High(3) sensitivity to compound (Breast MCF7/ADRr CL5002): 1
- classification of cell line as Low(1), Medium(2), High(3) sensitivity to compound (Breast MDA-MB-231 CL5005): 1
- classification of cell line as Low(1), Medium(2), High(3) sensitivity to compound (Breast MDA-MB-435 CL5011): 1
- classification of cell line as Low(1), Medium(2), High(3) sensitivity to compound (Breast MDA-N CL5012): 1
- classification of cell line as Low(1), Medium(2), High(3) sensitivity to compound (Breast T-47D CL5014): 2
- classification of cell line as Low(1), Medium(2), High(3) sensitivity to compound (CNS SF-268 CL12014): 2
- classification of cell line as Low(1), Medium(2), High(3) sensitivity to compound (CNS SF-295 CL12015): 2
- classification of cell line as Low(1), Medium(2), High(3) sensitivity to compound (CNS SF-539 CL12016): 3
- classification of cell line as Low(1), Medium(2), High(3) sensitivity to compound (CNS SNB-19 CL12002): 3
- classification of cell line as Low(1), Medium(2), High(3) sensitivity to compound (CNS SNB-75(I) CL12005): 3
- classification of cell line as Low(1), Medium(2), High(3) sensitivity to compound (CNS U251(I) CL12009): 3
- classification of cell line as Low(1), Medium(2), High(3) sensitivity to compound (Colon COLO-250 CL4010): 2
- classification of cell line as Low(1), Medium(2), High(3) sensitivity to compound (Colon HCC-2998 CL4002): 1
- classification of cell line as Low(1), Medium(2), High(3) sensitivity to compound (Colon HCT-15 CL4015): 1
- classification of cell line as Low(1), Medium(2), High(3) sensitivity to compound (Colon HCT-116 CL4003): 2
- classification of cell line as Low(1), Medium(2), High(3) sensitivity to compound (Colon HT29(I) CL4001): 1
- classification of cell line as Low(1), Medium(2), High(3) sensitivity to compound (Colon KM12 CL4017): 1
- classification of cell line as Low(1), Medium(2), High(3) sensitivity to compound (Colon SW-620 CL4009): 2
- classification of cell line as Low(1), Medium(2), High(3) sensitivity to compound (Leukemia CCRF-CEM(I) CL7003): 3
- classification of cell line as Low(1), Medium(2), High(3) sensitivity to compound (Leukemia HL-60(I) CL7008): 3
- classification of cell line as Low(1), Medium(2), High(3) sensitivity to compound (Leukemia K562(I) CL7005): 2
- classification of cell line as Low(1), Medium(2), High(3) sensitivity to compound (Leukemia MOLT-4 CL7006): 3
- classification of cell line as Low(1), Medium(2), High(3) sensitivity to compound (Leukemia RPMI-8226(I) CL7010): 2
- classification of cell line as Low(1), Medium(2), High(3) sensitivity to compound (Leukemia SR CL7019): 3
- classification of cell line as Low(1), Medium(2), High(3) sensitivity to compound (Melanoma LOX IMVI CL10001): 2
- classification of cell line as Low(1), Medium(2), High(3) sensitivity to compound (Melanoma M14 CL10014): 2
- classification of cell line as Low(1), Medium(2), High(3) sensitivity to compound (Melanoma MALME-3M CL10002): 2
- classification of cell line as Low(1), Medium(2), High(3) sensitivity to compound (Melanoma SK-MEL-2 CL10005): 1
- classification of cell line as Low(1), Medium(2), High(3) sensitivity to compound (Melanoma SK-MEL-5 CL10007): 2
- classification of cell line as Low(1), Medium(2), High(3) sensitivity to compound (Melanoma SK-MEL-28 CL10008): 1
- classification of cell line as Low(1), Medium(2), High(3) sensitivity to compound (Melanoma UACC-62 CL10020): 2
- classification of cell line as Low(1), Medium(2), High(3) sensitivity to compound (Melanoma UACC-257 CL10021): 1
- classification of cell line as Low(1), Medium(2), High(3) sensitivity to compound (NSCLC A549/ATCC CL1004): 3
- classification of cell line as Low(1), Medium(2), High(3) sensitivity to compound (NSCLC EKVX CL1008): 1
- classification of cell line as Low(1), Medium(2), High(3) sensitivity to compound (NSCLC HOP-62 CL1026): 3
- classification of cell line as Low(1), Medium(2), High(3) sensitivity to compound (NSCLC HOP-92 CL1029): 3
- sensitivity classification Low(1)/Medium(2)/High(3) (NSCLC NCI-H23(I) CL1001): 2
- classification of cell line as Low(1), Medium(2), High(3) sensitivity to compound (NSCLC NCI-H226 CL1013): 3
- sensitivity classification Low(1)/Medium(2)/High(3) (NSCLC NCI-H332M CL1017): 1
- sensitivity classification Low(1)/Medium(2)/High(3) (NSCLC NCI-H460 CL1021): 3
- sensitivity classification Low(1)/Medium(2)/High(3) (NSCLC NCI-H522 CL1003): 2
- sensitivity classification Low(1)/Medium(2)/High(3) (Ovarian IGROV1 CL6010): 2
- sensitivity classification Low(1)/Medium(2)/High(3) (Ovarian OVCAR-3 CL6001): 1
- sensitivity classification Low(1)/Medium(2)/High(3) (Ovarian OVCAR-4 CL6002): 1
- sensitivity classification Low(1)/Medium(2)/High(3) (Ovarian OVCAR-5 CL6003): 1
- sensitivity classification Low(1)/Medium(2)/High(3) (Ovarian OVCAR-8 CL6005): 2
- sensitivity classification Low(1)/Medium(2)/High(3) (Ovarian SK-OV-3 CL6011): 2
- sensitivity classification Low(1)/Medium(2)/High(3) (Prostate DU-145 CL11003): 2
- sensitivity classification Low(1)/Medium(2)/High(3) (Prostate PC-3(I) CL11001): 2
- sensitivity classification Low(1)/Medium(2)/High(3) (Renal 786-0 CL9018): 2
- sensitivity classification Low(1)/Medium(2)/High(3) (Renal A498 CL9013): 2
- sensitivity classification Low(1)/Medium(2)/High(3) (Renal ACHN CL9023): 3
- sensitivity classification Low(1)/Medium(2)/High(3) (Renal CAKI-1 CL9015): 3
- sensitivity classification Low(1)/Medium(2)/High(3) (Renal RXF-393 CL9016): 2
- sensitivity classification Low(1)/Medium(2)/High(3) (Renal SN12C CL9008): 3
- sensitivity classification Low(1)/Medium(2)/High(3) (Renal TK10 CL9024): 1
- sensitivity classification Low(1)/Medium(2)/High(3) (Renal UO-31 CL9004): 1
